Results from patent publication US20090221666A1, “STILBENE DERIVATIVES AND METHODS OF INHIBITING CANCER CELL GROWTH AND MICROBIAL GROWTH” (priority 2005, published 2009).
In brackets after ≈: the same amount, converted by molar mass. Where a name gives a salt, the structure may show the parent alone. Read-outs that look alike come from different tables or passages of the source.

Legend:
[1] = test system: P388 lymphocytic leukemia cell line; assay type: cell-based; conditions: murine P388 lymphocytic leukemia cell line
Experimental: (§1) Cytotoxicity assays were performed by the sulforhodamine B method, in which inhibition of formation of cellular protein is measured (Ref. 42). The mitotic index of MCF-7 breast cancer cells was determined as described previously (Ref. 27), except that cells were incubated in the presence of drug for 16 h prior to addition of the DNA stain.

[2] = Solubility in distilled water; assay type: physicochemical; conditions: for Solubility / solubility: 1 mL distilled water at 25° C.
[3] = test system: Neisseria gonorrhoeae ATCC 49226; test: Broth microdilution assay, Neisseria gonorrhoeae; assay type: cell-based
From the text: (§2) Compounds were screened in broth microdilution assays according to National Committee for Clinical Laboratory Standards (Ref. 43-44). Assays were repeated at least twice on separate days.

[4] = test system: Enterococcus faecalis ATCC 29212; test: Broth microdilution assay, Enterococcus faecalis; assay type: cell-based
From the text: as §2

[5] = test system: SF-295; test: cells; assay type: cell-based, human; conditions: for GI50: Homo sapiens, read-out: CNS SF-295 GI50
Experimental: as §1

[6] = test system: KM20L2; test: cells; assay type: cell-based, human; conditions: for GI50: Homo sapiens, KM-20L2, read-out: Colon KM20L2 GI50
Experimental: as §1

[7] = test system: DU145; test: cells; assay type: cell-based, human; conditions: for GI50: Homo sapiens, DU-145, read-out: Prostate DU145 GI50
Experimental: as §1

[8] = test system: NCI-H460; test: cells; assay type: cell-based, human; conditions: for GI50: Homo sapiens, read-out: Lung-NSC NCI-H460 GI50
Experimental: as §1

[9] = test system: MCF-7; test: cells; assay type: cell-based, human; conditions: for GI50: Homo sapiens, MCF7, read-out: Breast MCF-7 GI50
Experimental: as §1

[10] = test system: BXPC-3; test: cells; assay type: cell-based, human; conditions: for GI50: Homo sapiens, read-out: Pancreas BXPC-3 GI50
Experimental: as §1

[11] = test system: human cancer cell lines and murine P388; test: cells; assay type: cell-based; conditions: for IC50: Mus musculus
Experimental: as §1

[12] = test system: Bovine brain tubulin (vinca domain); test: Inhibition of [3H]vinblastine binding to tubulin; conditions: 5.0 μM tubulin, 5 μM [3H]vinblastine
Experimental: (§3) Bovine brain tubulin was prepared and the tubulin assembly and colchicine binding assays were performed as described previously. In the assembly assay, reaction mixtures contained 1.0 mg/mL (10 μM) tubulin and varying concentrations of potential inhibitors. In the colchicine binding assay reaction mixtures contained 0.1 mg/mL (1.0 μM) tubulin, 5.0 μM [^3H]colchicine, and potential inhibitor as indicated. The vinblastine binding assay was performed as described previously for GTP binding by centrifugal gel filtration, except that a Beckman Allegra 6KR centrifuge equipped with a GH-3.8A swinging bucket rotor was used and the syringe-columns were centrifuged at 2,000 rpm (Ref. 38-41). Reaction mixtures contained 0.5 mg/mL (5.0 μM) tubulin, 5 μM [^3H]vinblastine, potential inhibitor as indicated, 0.5 mM MgCl2, 0.1 M 4-morpholineethanesulfonate (1.0 M stock solution adjusted to pH 6.9 with NaOH, and 4% (v/v) dimethyl sulfoxide. Incubation (30 min) and centrifugal gel filtration were performed at room temperature (20-22° C.).

[13] = test system: Bovine brain tubulin (colchicine site); test: Inhibition of [3H]colchicine binding to tubulin; conditions: 1.0 μM tubulin, 5.0 μM [3H]colchicine
Experimental: as §3

[14] = test system: Streptococcus pneumoniae ATCC 6303; test: Broth microdilution assay, Streptococcus pneumoniae; assay type: cell-based; conditions: ATCC6303
From the text: as §2

[15] = test system: Cryptococcus neoformans ATCC 90112; test: Broth microdilution assay, Cryptococcus neoformans; assay type: cell-based; conditions: ATCC90112
From the text: as §2

[16] = test system: Bovine brain tubulin; test: Inhibition of tubulin assembly; assay type: biochemical; conditions: 1.0 mg/mL (10 μM) tubulin; read-out: Inhibition of tubulin assembly IC50 (μM) ± SD
Experimental: as §3

[17] = P388, mean over the cell lines of Table 2, read-out: Mean

COc1ccc(/C=C\c2cc(OC)c3c(c2)OCO3)cc1NC(=O)[C@@H](N)Cc1ccc(OP(=O)(O)O)cc1 [Compound 3a, 3,4-Methylenedioxy-5,4′-dimethoxy-3′-(O-phosphoryl-N^α-L-Tyr)-amido-Z-stilbene]
Leukemia P388 ED50 [1]: >10 µg/mL
Solubility [2]: <100 µg/mL
water solubility (in words) [2]: only sparing water solubility
MIC [3]: 0.125 µg/mL (≈ 0.23 µM)
MIC [4]: 64 µg/mL (≈ 118 µM)
CNS SF-295 GI50 [5]: >1 µg/mL
Colon KM20L2 GI50 [6]: >1 µg/mL
Prostate DU145 GI50 [7]: >1 µg/mL
Lung-NSC NCI-H460 GI50 [8]: >1 µg/mL
Breast MCF-7 GI50 [9]: >1 µg/mL
Pancreas BXPC-3 GI50 [10]: >1 µg/mL

Sodium 3,4-methylenedioxy-5,4′-dimethoxy-3′-(L-Tyr)-amido-Z-stilbene 3′-O,N^α-diphosphate [Compound 6]
Leukemia P388 ED50 [1]: 0.270 µg/mL
Solubility [2]: <100 µg/mL
water solubility (in words) [2]: only sparing water solubility
MIC [3]: 4 µg/mL
CNS SF-295 GI50 [5]: >1 µg/mL
Colon KM20L2 GI50 [6]: >1 µg/mL
Prostate DU145 GI50 [7]: >1 µg/mL
Lung-NSC NCI-H460 GI50 [8]: >1 µg/mL
Breast MCF-7 GI50 [9]: 1.3 µg/mL

COc1ccc(/C=C\c2cc(OC)c3c(c2)OCO3)cc1NC(=O)[C@H](Cc1ccc(OC(C)(C)C)cc1)NC(=O)OCc1ccccc1 [Compound 7, 3,4-Methylenedioxy-5,4′-dimethoxy-3′-(O-tert-butyl-N^α-Z-L-Tyr)-amido-Z-stilbene]
Leukemia P388 ED50 [1]: 0.380 µg/mL
Mean ([11]; mean over the cell lines of Table 2): 0.61 µg/mL
CNS SF-295 GI50 [5]: 0.44 µg/mL
Colon KM20L2 GI50 [6]: 1.8 µg/mL
Prostate DU145 GI50 [7]: 0.39 µg/mL
Lung-NSC NCI-H460 GI50 [8]: 0.41 µg/mL
Breast MCF-7 GI50 [9]: 0.36 µg/mL
Pancreas BXPC-3 GI50 [10]: 0.049 µg/mL

COc1ccc(C=Cc2cc(OC)c3c(c2)OCO3)cc1N [Compound 1b]
Inhibition of vinblastine binding % Inhibition ± SD ([12]; 10 μM inhibitor): 0%
Inhibition of vinblastine binding % Inhibition ± SD ([12]; 80 μM inhibitor): 0%
Inhibition of colchicine binding % Inhibition ± SD ([13]; 2 μM inhibitor): 85 ± 3%

COc1ccc(/C=C\c2cc(OC)c3c(c2)OCO3)cc1NC(=O)[C@H](Cc1ccc(OP(=O)(OCc2ccccc2)OCc2ccccc2)cc1)NC(=O)OCc1ccccc1 [Compound 8, 3,4-Methylenedioxy-5,4′-dimethoxy-3′-(O-bis-benzylphosphoryl-N^α-Z-L-Tyr)-amido-Z-stilbene]
Leukemia P388 ED50 [1]: 0.133 µg/mL
MIC [4]: 64 µg/mL (≈ 74.7 µM)
CNS SF-295 GI50 [5]: >10 µg/mL
Colon KM20L2 GI50 [6]: >10 µg/mL
Prostate DU145 GI50 [7]: >10 µg/mL
Lung-NSC NCI-H460 GI50 [8]: >10 µg/mL
Breast MCF-7 GI50 [9]: >10 µg/mL
Pancreas BXPC-3 GI50 [10]: >10 µg/mL

CC[C@H](C)[C@@H]([C@@H](CC(=O)N1CCC[C@H]1[C@H](OC)[C@@H](C)C(=O)N[C@@H](Cc1ccccc1)c1nccs1)OC)N(C)C(=O)[C@@H](NC(=O)[C@H](C(C)C)N(C)C)C(C)C [Compound 4a, Dolastatin 10]
Inhibition of vinblastine binding % Inhibition ± SD ([12]; 10 μM inhibitor): 96 ± 0.7%
Inhibition of colchicine binding % Inhibition ± SD ([13]; 2 μM inhibitor): 13 ± 5%

COc1ccc(/C=C\c2cc(OC)c3c(c2)OCO3)cc1NC(=O)[C@H](CC(=O)OC(C)(C)C)NC(=O)OC(C)(C)C [Compound 10, 3,4-Methylenedioxy-5,4′-dimethoxy-3′-(O^β-tert-butyl-N^α-Boc-L-Asp)-amido-Z-stilbene]
Leukemia P388 ED50 [1]: 0.385 µg/mL
IC50 [11, 17]: 2.4 µg/mL (≈ 4.21 µM)
GI50 [5]: 1.7 µg/mL (≈ 2.98 µM)
GI50 [6]: 2.3 µg/mL (≈ 4.03 µM)
GI50 [7]: 3 µg/mL (≈ 5.26 µM)
GI50 [8]: 3.8 µg/mL (≈ 6.66 µM)
GI50 [9]: 2.4 µg/mL (≈ 4.21 µM)
GI50 [10]: 3.4 µg/mL (≈ 5.96 µM)

COc1ccc(/C=C\c2cc(OC)c3c(c2)OCO3)cc1NC(=O)[C@H](C)[C@@H](OC)[C@@H]1CCCN1 [Compound 14, 3,4-Methylenedioxy-5,4′-dimethoxy-3′-(N^α-L-Dap)-amido-Z-stilbene TFA salt]
Leukemia P388 ED50 [1]: 0.0263 µg/mL
MIC [14]: 8 to 16 µg/mL
MIC ([3]; ATCC49226, read-out: MIC): 16 µg/mL
MIC ([4]; ATCC29212, read-out: MIC): 32 to 64 µg/mL
IC50 [11, 17]: 0.11 µg/mL
inhibition of mini-panel of human cancer cell lines (in words) [11]: strongly inhibiting
GI50 [5]: 0.062 µg/mL
GI50 [6]: 0.26 µg/mL
GI50 [7]: 0.07 µg/mL
GI50 [8]: 0.083 µg/mL
GI50 [9]: 0.054 µg/mL
GI50 [10]: 0.23 µg/mL
MIC [15]: 64 µg/mL

COc1ccc(C=Cc2cc(OC)c(OC)c(OC)c2)cc1O [Compound 2g, combretastatin A-4]
Inhibition of vinblastine binding % Inhibition ± SD ([12]; 10 μM inhibitor): 0%
Inhibition of vinblastine binding % Inhibition ± SD ([12]; 80 μM inhibitor): 0%
Inhibition of colchicine binding % Inhibition ± SD ([13]; 2 μM inhibitor): 98 ± 0.4%

COc1ccc(/C=C\c2cc(OC)c3c(c2)OCO3)cc1N [Compound 1a, 3,4-Methylenedioxy-5,4^1-Dimethoxy-3^1-Amino-Z-Stilbene, reference compound]
IC50 ([11]; P388, read-out: Mean): 0.013 µg/mL (≈ 0.0434 µM)

COc1ccc(/C=C\c2cc(OC)c3c(c2)OCO3)cc1NC(=O)[C@H](C)[C@@H](OC)[C@@H]1CCCN1C(=O)OC(C)(C)C [Compound 13, 3,4-Methylenedioxy-5,4′-dimethoxy-3′-(N^α-Boc-L-Dap)-amido-Z-stilbene]
Leukemia P388 ED50 [1]: 0.225 µg/mL
IC50 [11, 17]: 0.7 µg/mL (≈ 1.23 µM)
GI50 [5]: 0.75 µg/mL (≈ 1.32 µM)
GI50 [6]: 1.9 µg/mL (≈ 3.34 µM)
GI50 [7]: 0.38 µg/mL (≈ 0.668 µM)
GI50 [8]: 0.52 µg/mL (≈ 0.914 µM)
GI50 [9]: 0.53 µg/mL (≈ 0.932 µM)
GI50 [10]: 0.58 µg/mL (≈ 1.02 µM)
MIC [15]: 64 µg/mL (≈ 113 µM)

CC[C@H](C)[C@@H]([C@@H](CC(=O)N1CCC[C@H]1[C@H](OC)[C@@H](C)C(=O)O)OC)N(C)C(=O)[C@@H](NC(=O)[C@H](C(C)C)N(C)C)C(C)C [Compound 4b, Dov-Val-Dil-Dap]
Inhibition of vinblastine binding % Inhibition ± SD ([12]; 10 μM inhibitor): 16 ± 6%
Inhibition of vinblastine binding % Inhibition ± SD ([12]; 80 μM inhibitor): 68 ± 0.4%
Inhibition of colchicine binding % Inhibition ± SD ([13]; 50 μM inhibitor): 5.2 ± 3%

COc1ccc(/C=C\c2cc(OC)c3c(c2)OCO3)cc1NC(=O)[C@@H](N)CC(=O)[O-].[Na+] [Compound 11, Sodium 3,4-methylenedioxy-5,4′-dimethoxy-3′-(N^α-L-Asp)-amido-Z-stilbene]
Leukemia P388 ED50 [1]: 0.361 µg/mL
Solubility [2]: <100 µg/mL
solubility [2]: < 100 µg/mL
water solubility (in words) [2]: only sparing water solubility
melting point: 168 to 170 °C
IC50 [11, 17]: 0.33 µg/mL
GI50 [5]: 0.25 µg/mL
GI50 [6]: 0.19 µg/mL
GI50 [7]: 0.33 µg/mL
GI50 [8]: 0.3 µg/mL
GI50 [9]: 0.51 µg/mL
GI50 [10]: 0.38 µg/mL

COc1ccc(/C=C\c2cc(OC)c3c(c2)OCO3)cc1NC(=O)[C@@H](N)Cc1ccc(O)cc1.Cl [Compound 9, 3,4-Methylenedioxy-5,4′-dimethoxy-3′-(N^α-L-Tyr)-amido-Z-stilbene hydrochloride]
Leukemia P388 ED50 [1]: 0.0329 µg/mL
solubility [2]: < 100 µg/mL
Solubility ([2]; hydrochloride): <100 µg/mL
water solubility (in words) [2]: only sparing water solubility
melting point: 169 to 170.5 °C
IC50 [11, 17]: 0.059 µg/mL
inhibition of mini-panel of human cancer cell lines (in words) [11]: strongly inhibiting
GI50 [5]: 0.064 µg/mL
GI50 [6]: 0.034 µg/mL
GI50 [7]: 0.08 µg/mL
GI50 [8]: 0.096 µg/mL
GI50 [9]: 0.041 µg/mL
GI50 [10]: 0.064 µg/mL

COc1ccc(/C=C\c2cc(OC)c3c(c2)OCO3)cc1NC(=O)[C@H](Cc1ccc(OP(=O)(OCc2ccccc2)OCc2ccccc2)cc1)NP(=O)(OCc1ccccc1)OCc1ccccc1 [Compound 5, 3,4-Methylenedioxy-5,4′-dimethoxy-3′-[O,N^α-di(bis-benzylphosphoryl)-L-Tyr]-amido-Z-stilbene]
Leukemia P388 ED50 [1]: >10 µg/mL
